In paper PMC8097418, “In Vitro and In Vivo Antibacterial Activities of a Novel Quinolone Compound, OPS-2071, against Clostridioides difficile” (Antimicrobial Agents and Chemotherapy, 2021):
Values after ≈ are worked out from the molar mass of the structure shown. Where two headings read alike, the source gives them in different places.

Key:
C. difficile ATCC 700057 [1] = experiment: MIC by broth dilution (GAM broth); format: cell-based, Clostridioides difficile; conditions: Clostridioides difficile, read-out: MIC
Procedure: (§1) MICs obtained using the agar dilution method were determined visually as described for the CLSI method ([41], [42]). MICs obtained using the broth dilution method were determined visually based on the CLSI method except for using Gifu anaerobic medium (GAM) broth instead of supplemented Brucella broth ([41], [42]).

C. difficile ATCC 700057 [2] = format: cell-based, Clostridioides difficile
C. difficile ATCC 700057 [3] = experiment: Effect of pH on MIC (agar dilution); format: cell-based, Clostridioides difficile; conditions: for MIC: Clostridioides difficile
[4] = Pharmacokinetics in the hamster (cecal contents); format: in vivo, male Syrian hamsters; conditions: male, Syrian, 2 mg/kg oral
Procedure: OPS-2071 was orally administered at 2 mg/kg to male Syrian hamsters, and the cecal contents were collected 0.5, 1, 2, 4, 8, 24, 48, and 72 h postdose (n = 5 for each time point). After homogenizing with saline and treatment using acetonitrile-formic acid (100:1 [vol/vol]), the OPS-2071 concentration in cecal contents was determined using a validated liquid chromatography-electrospray ionization-tandem mass spectrometry (LC-ESI-MS/MS) method. The mass spectrometer 4000 QTRAP (AB Sciex Pte. Ltd.) and high-performance liquid chromatography Prominence UFLC system (Shimadzu Corp.) were used. The pharmacokinetic (PK) parameters (Cmax) were determined with WinNonlin professional software version 6.3, (Pharsight Corp.).

in vitro = conditions: mouse
C. difficile ATCC 700057 [5] = experiment: Mutant prevention concentration; format: cell-based, Clostridioides difficile
Procedure: The mutant prevention concentration was measured by plating approximately 10^10 CFU of C. difficile ATCC 700057 onto a GAM agar plate containing the test agent. Inoculated plates were incubated for 3 days, and the MIC for each antibiotic that prevented the growth of colonies was determined using the agar dilution method as described by the CLSI ([41]). The MIC values of grown colonies were compared to determine which bacteria were resistant. The MPC was defined as the lowest concentration that prevented the growth of resistant bacteria.

C. difficile ATCC 700057 [6] = experiment: MIC by agar dilution (CLSI) against quality control strain; format: cell-based, Clostridioides difficile; conditions: Clostridioides difficile, read-out: MIC
Procedure: as §1

C. difficile ATCC 43255 = experiment: MIC against the infection strain; format: cell-based, Clostridioides difficile
[7] = tested on: 54 clinically isolated C. difficile strains; experiment: MIC by agar dilution against 54 clinically isolated strains; format: cell-based, Clostridioides difficile
Procedure: as §1

[8] = tested on: hypervirulent and nonhypervirulent strains of C. difficile (62 strains); experiment: MIC distribution against 20 hypervirulent and 42 nonhypervirulent strains; format: cell-based, Clostridioides difficile; conditions: for MIC50 / MIC90: Clostridioides difficile
[9] = Pharmacokinetics in the rat (plasma, oral and intravenous); format: in vivo, male SD rats
Procedure: OPS-2071 was orally or intravenously administered at 1 mg/kg to male SD rats, and plasma was collected 0.5, 1, 2, 4, 6, 8, 12, 24, 48, and 72 h postdose (oral, n = 3 for each time point) or 0.083, 0.25, 0.5, 1, 2, 4, 6, 8, 12, 24, 48, and 72 h postdose (intravenous, n = 3 for each time point). After solid-phase extraction, the OPS-2071 concentration in plasma was determined by a validated LC-ESI-MS/MS method, and bioavailability was calculated. The mass spectrometer QTRAP 5500 (AB Sciex Pte. Ltd.) and high-performance liquid chromatography Prominence UFLCXR system (Shimadzu Corp.) were used. The PK parameters (AUCt) were determined with the same WinNonlin professional software, and the bioavailability was calculated from AUCt,oral and AUCt,intravenous.

[10] = tested on: 10 clinical isolates of C. difficile; experiment: MIC (broth dilution) and MBC testing, 10 clinical isolates; format: cell-based, Clostridioides difficile; conditions: 10 clinical isolates
Procedure: In this test, MIC testing was performed using the broth dilution method as recommended in the CLSI ([41]). After the MICs were determined, 10 μl of the bacterial suspension from the MIC test tube was inoculated onto agar plates and incubated at 37°C. The bacterial colonies were then counted and bacterial numbers were calculated. The MBC was considered to be the lowest concentration of the antibiotics that prevented growth and reduced the inoculum by >99.9% within 48 h, irrespective of counts of survivors at higher antibiotic concentrations.

[11] = nonhypervirulent strains (n = 42)

With `Cc1c(-c2cnc(N)c(C#N)c2)c(F)cc2c(=O)c(C(=O)O)cn(C3CC3)c12` [OPS-2071, 7-(6-amino-5-cyanopyridin-3-yl)-1-cyclopropyl-6-fluoro-8-methyl-4-oxo-1,4-dihydroquinoline-3-carboxylic acid] the MIC (C. difficile ATCC 700057 [1]; ATCC700057, broth dilution, retested for the time-kill assay) was 0.03 µg/mL (≈ 0.0793 µM), the MIC (C. difficile ATCC 700057 [1]; ATCC700057, broth method, determined for the PAE assay) was 0.06 µg/mL (≈ 0.159 µM) and the “Frequency of spontaneous resistance” value (C. difficile ATCC 700057 [2]; 4× MIC) was <9.17 × 10^–9. The “Frequency of spontaneous resistance” value (C. difficile ATCC 700057 [2]; 16× MIC) was <9.17 × 10^–9, the “Frequency of spontaneous resistance” value (C. difficile ATCC 700057 [2]; 64× MIC) was <9.17 × 10^–9 and the MIC (C. difficile ATCC 700057 [3]; ATCC700057, pH 6) was 0.016 µg/mL (≈ 0.0423 µM). For the same compound, the MIC (C. difficile ATCC 700057 [3]; ATCC700057, pH 7) was 0.016 µg/mL (≈ 0.0423 µM), the MIC (C. difficile ATCC 700057 [3]; ATCC700057, pH 8) was 0.03 µg/mL (≈ 0.0793 µM) and the “influence of pH on MICs” value (C. difficile ATCC 700057 [3]; pH 6 to 8) was “not influenced by pH”. The concentration at 24 h ([4]; 24 h, read-out: concentration in the cecal contents at 24 h postdose) was 1840 ng/g, the Cmax ([4]; reached at 4 h postdose, read-out: maximum concentration (Cmax) in the cecal contents) was 43000 ng/g and the IC50 at 110 min (in vitro) was over 100 µg/mL. The “MPC fold lower than those of fidaxomicin and vancomycin” value (C. difficile ATCC 700057 [5]) was 16 fold, the “mutant prevention concentration (MPC)” value (C. difficile ATCC 700057 [5]; approximately 10^10 CFU, 3 days) was 0.5 µg/mL and the MIC (C. difficile ATCC 700057 [6]; ATCC700057, agar dilution, determined for the spontaneous resistance assay) was 0.03 µg/mL (≈ 0.0793 µM). For the same compound, the MIC (C. difficile ATCC 700057 [6]; ATCC700057, quality control strain ATCC 700057, CLSI method) was 0.031 µg/mL (≈ 0.0819 µM), the MIC (C. difficile ATCC 43255) was 0.016 µg/mL (≈ 0.0423 µM) and the “MIC50 fold higher than that of fidaxomicin” value ([7]; 54 clinical isolates) was 2 fold. For the same compound, the “MIC50 fold lower than those of vancomycin and metronidazole” value ([7]; 54 clinical isolates) was 16 fold, the “MIC90 fold lower than that of fidaxomicin” value ([7]; 54 clinical isolates) was 16 fold and the “MIC90 fold lower than those of vancomycin and metronidazole” value ([7]; 54 clinical isolates) was 8 fold. The MIC range ([7]; 54 clinically isolated C. difficile strains) was 0.016 to 1 µg/mL, the MIC50 ([7]; Clostridioides difficile) was 0.125 µg/mL (≈ 0.33 µM) and the MIC90 ([7]; Clostridioides difficile, 54 clinically isolated C. difficile strains) was 0.5 µg/mL (≈ 1.32 µM). It also gave an MIC50 ([8]; hypervirulent strains (n = 20)) of 0.03 µg/mL (≈ 0.0793 µM), an MIC90 ([8]; hypervirulent strains (n = 20)) of 0.25 µg/mL (≈ 0.661 µM) and an MIC50 [8, 11] of 0.03 µg/mL (≈ 0.0793 µM). For the same compound, the MIC90 [8, 11] was 0.125 µg/mL (≈ 0.33 µM), the “Cumulative percentage of strains” value ([8]; Hyp (n = 20), MIC 0.063 μg/ml) was 75% and the “Cumulative percentage of strains” value ([8]; Hyp (n = 20), MIC 0.25 μg/ml) was 100%. For the same compound, the “Cumulative percentage of strains” value ([8]; Non-hyp (n = 42), MIC 0.063 μg/ml) was 88%, the “Cumulative percentage of strains” value ([8]; Non-hyp (n = 42), MIC 0.25 μg/ml) was 100% and the MIC range ([8]; hypervirulent strains (n = 20)) was 0.03 to 0.25 µg/mL. For the same compound, the MIC range [8, 11] was 0.03 to 0.25 µg/mL, the “plasma concentrations at 48 and 72 h after administration” value ([9]; 1 mg/kg oral or intravenous) was under 0.5 ng/mL and the bioavailability ([9]; male, SD, rat, plasma, 1 mg/kg, from AUCt oral and intravenous) was 2.9%. For the same compound, the AUC(0-t) ([9]; male, SD, rat, intravenous, 1 mg/kg, plasma) was 672 ng·h/mL, the AUC(0-t) ([9]; male, SD, rat, oral, 1 mg/kg, plasma) was 19.5 ng·h/mL and the MBC90/MIC90 [10] was 1. For the same compound, the “MBC Range” value ([10]; >99.9% reduction within 48 h) was 0.03 to 0.5 µg/mL, the “MIC range” value ([10]; broth dilution) was 0.03 to 0.5 µg/mL and the MIC90 ([10]; Clostridioides difficile, broth dilution, read-out: MIC90) was 0.5 µg/mL (≈ 1.32 µM). The MBC ([10]; Clostridioides difficile, read-out: MBC90) was 0.5 µg/mL (≈ 1.32 µM).
